Reference: patent US20240408119A1, “DELIVERY OF THERAPEUTIC ALKALOID COMPOUNDS” (priority 2022, published 2024)
Where two headings read alike, the source gives them in different places. Marks after values point to notes of the source that are not given here.

Tests used:
[1] = assay type: in vitro ADME, human; details: 5 μM, 37° C.; for Human Plasma Metabolite (%): metabolite (mesembrine) accumulated; for Human Plasma Prodrug (%): prodrug remaining
Description: (§1) Each test was carried out in duplicate for each time point; 0 min, 15 min, 30 min, 60 min, 120, 240 min. […]

[2] = Plasma Stability Assay (Example A3), human plasma; assay type: in vitro ADME; details: 10 μM, 37° C.; for Human Plasma Metabolite (%): metabolite (mesembrine, 001) accumulated; for Human Plasma Prodrug (%): prodrug remaining
Source text: (§2) The data is represented in the table below.

in vivo = assay type: in vivo, mouse; details: for half-life / C0 / clearance / Vd: iv, 2 mg/kg; for C0: back extrapolated; for Vd: read-out: Vss
Description: Total fifteen male mice were used in this study with n=3 mice/time point with sparse sampling study design. Animals were administered through intravenous route with solution formulation of 321 at 2 mg/kg dose.
The extraction procedure for plasma/brain samples and the spiked plasma/brain calibration standards were identical (PMSF Stabilized Plasma and Brain used for Preparation of calibration standards): A 20 μL of study sample plasma/brain or spiked plasma/brain calibration standard was added to individual pre-labeled micro-centrifuge tubes followed by 200 μL of internal standard prepared in acetonitrile (Rosuvastatin, 50 ng/mL) was added except for blank, where 200 μL of acetonitrile was added. Samples were vortexed for 5 minutes. Samples were centrifuged for 10 minutes at a speed of 4000 rpm at 4° C. Following centrifugation, 200 μL of clear supernatant was transferred in 96 well plates and analyzed using LC-MS/MS.
Brain samples were diluted (1-part of tissue: 2-part of buffer) and homogenized. The homogenate was submitted for bioanalysis and the concentrations (ng/mL) received were corrected with dilution factor (3×) and the final reported concentrations were represented in ng/g.
The plasma and brain concentration-time data of 321 and 001 were used for the pharmacokinetic analysis.
LLOQ: 321: 1.02 ng/mL for plasma and brain 001: 1.01 ng/mL for plasma and brain

[3] = assay type: in vitro ADME, mouse; details: 5 μM, 37° C.; for Mouse Plasma Metabolite (%): metabolite (mesembrine) accumulated; for Mouse Plasma Prodrug (%): prodrug remaining
Description: as §1

[4] = Metabolic Stability in Human Hepatocytes; assay type: in vitro ADME; details: cryopreserved human hepatocytes, 37° C.
Description: A 2.5 uL aliquot of 100 μM test compound was incubated with 247.5 uL of cryopreserved hepatocytes suspended in serum-free incubation medium at 5×10^5 viable cells/mL. The mixture was incubated at 37° C. and shaken at 500 rpm for the designated time points (0.5, 15, 30, 60, 90, or 120 min). At each time point, 25 μL aliquot of incubation mixture was transferred to 125 μL of cold acetonitrile containing internal standard, followed by centrifugation for 30 min at 3,220 g. 100 μL of supernatant was mixed with 100 μL of distilled water for analysis by LC-MS/MS. Peak areas were determined from extracted ion chromatograms and in vitro half-life (t1/2) was determined from the concentration vs time regression slope, in vitro t1/2=0.693/k. Conversion of the in vitro t1/2 (in min) into the in vitro intrinsic clearance (in vitro CLint, in μL/min/10^6 cells) is done using: in vitro CLint=kV/N.

[5] = Plasma Stability Assay (Example A3), rat plasma; assay type: in vitro ADME; details: 10 μM, 37° C.; for Rat Plasma Metabolite (%): metabolite (mesembrine, 001) accumulated; for Rat Plasma Prodrug (%): prodrug remaining
Source text: as §2

[6] = 321 after 321 IV 2 mg/kg, 0.08 h
[7] = 321 after 321 IV 2 mg/kg, 0.25 h
[8] = 321 after 321 IV 2 mg/kg, 0.5 h
[9] = male, C57BL/6, mouse, in vivo, 321 in brain after 321 IV 2 mg/kg
[10] = male, C57BL/6, mouse, in vivo, 321 in plasma after 321 IV 2 mg/kg

SMILES: COc1ccc([C@@]23CCC(OP(=O)(OC(C)C)OC(C)C)=C[C@@H]2N(C)CC3)cc1OC [Compound 321, [(3aS,7aS)-3a-(3,4-dimethoxyphenyl)-1-methyl-3,4,5,7a-tetrahydro-2H-indol-6-yl]diisopropyl phosphate]
- Human Plasma Metabolite (%) ([1]; 0 min): 0.08%
- Human Plasma Metabolite (%) ([1]; 15 min): 0.29%
- Human Plasma Metabolite (%) ([1]; 30 min): 0.40%
- Human Plasma Metabolite (%) ([1]; 60 min): 0.49%
- Human Plasma Metabolite (%) ([1]; 120 min): 0.67%
- Human Plasma Metabolite (%) ([1]; 240 min): 0.61%
- Human Plasma Prodrug (%) ([1]; 0 min): 100%
- Human Plasma Prodrug (%) ([1]; 15 min): >99%
- Human Plasma Prodrug (%) ([1]; 30 min): >99%
- Human Plasma Prodrug (%) ([1]; 60 min): >99%
- Human Plasma Prodrug (%) ([1]; 120 min): >99%
- Human Plasma Prodrug (%) ([1]; 240 min): 78.2%
- Human Plasma Metabolite (%) ([2]; 0 min): 0.40%
- Human Plasma Metabolite (%) ([2]; 10 min): 0.50%
- Human Plasma Metabolite (%) ([2]; 30 min): 0.57%
- Human Plasma Metabolite (%) ([2]; 60 min): 0.65%
- Human Plasma Metabolite (%) ([2]; 120 min): 0.82%
- Human Plasma Metabolite (%) ([2]; 240 min): 0.96%
- Human Plasma Prodrug (%) ([2]; 0 min): 100.0%
- Human Plasma Prodrug (%) ([2]; 10 min): >99%
- Human Plasma Prodrug (%) ([2]; 30 min): >99%
- Human Plasma Prodrug (%) ([2]; 60 min): 98.1%
- Human Plasma Prodrug (%) ([2]; 120 min): 94.5%
- Human Plasma Prodrug (%) ([2]; 240 min): 96.3%
- brain concentrations quantifiable up to (in vivo; 321 after 321 IV 2 mg/kg): ≤ 0.5 h
- plasma concentrations quantifiable up to (in vivo; 321 after 321 IV 2 mg/kg): up to 2 h
- Brain concentrations (mean) (in vivo; [6]): 99.58 ng/g
- Plasma concentrations (mean) (in vivo; [6]): 304.66 ng/mL
- Brain concentrations (mean) (in vivo; [7]): 37.11 ng/g
- Plasma concentrations (mean) (in vivo; [7]): 104.69 ng/mL
- Brain concentrations (mean) (in vivo; [8]): 7.89 ng/g
- Plasma concentrations (mean) (in vivo; [8]): 26.16 ng/mL
- Plasma concentrations (mean) (in vivo; 321 after 321 IV 2 mg/kg, 1 h): 8.57 ng/mL
- Plasma concentrations (mean) (in vivo; 321 after 321 IV 2 mg/kg, 2 h, average of two values): 1.38^d ng/mL
- AUClast (in vivo; 321 in brain after 321 IV 2 mg/kg): 27.57 ng·h/g
- half-life (in vivo; [9]): 6.6 min
- C0 (in vivo; [9]): 158 ng/mL
- clearance (in vivo; male, C57BL/6, mouse, in vivo, 321 in brain after 321 IV 2 mg/kg, flagged NR (not reportable, very high vs liver blood flow)): 1150 mL/min/kg
- Vd (in vivo; [9]): 10.3 L/kg
- clearance (in vivo; [10]): 341 mL/min/kg
- half-life (in vivo; [10]): 21.6 min
- C0 (in vivo; [10]): 504 ng/mL
- Vd (in vivo; [10]): 4.8 L/kg
- Kp (in vivo; male, C57BL/6, mouse, in vivo, 321 after 321 IV 2 mg/kg, read-out: Brain-Kp): 0.28
- AUC(0-t) (in vivo; [10]): 97.1 ng·h/mL
- Mouse Plasma Metabolite (%) ([3]; 0 min): 11.9%
- Mouse Plasma Metabolite (%) ([3]; 15 min): 28.4%
- Mouse Plasma Metabolite (%) ([3]; 30 min): 38.3%
- Mouse Plasma Metabolite (%) ([3]; 60 min): 51.1%
- Mouse Plasma Metabolite (%) ([3]; 120 min): 53.7%
- Mouse Plasma Metabolite (%) ([3]; 240 min): 55.2%
- Mouse Plasma Prodrug (%) ([3]; 0 min): 100%
- Mouse Plasma Prodrug (%) ([3]; 15 min): 77.3%
- Mouse Plasma Prodrug (%) ([3]; 30 min): 74.5%
- Mouse Plasma Prodrug (%) ([3]; 60 min): 58.4%
- Mouse Plasma Prodrug (%) ([3]; 120 min): 43.1%
- Mouse Plasma Prodrug (%) ([3]; 240 min): 31.7%
- half-life at 1 μM [4]: 23 min
- hepatocyte CLint at 1 μM [4]: 59.4 µL/min/1e6 cells
- Rat Plasma Metabolite (%) ([5]; 0 min): 23.9%
- Rat Plasma Metabolite (%) ([5]; 10 min): 53.7%
- Rat Plasma Metabolite (%) ([5]; 30 min): 56.0%
- Rat Plasma Metabolite (%) ([5]; 60 min): 59.1%
- Rat Plasma Metabolite (%) ([5]; 120 min): 59.3%
- Rat Plasma Metabolite (%) ([5]; 240 min): 56.7%
- Rat Plasma Prodrug (%) ([5]; 0 min): 100.0%
- Rat Plasma Prodrug (%) ([5]; 10 min): 74.0%
- Rat Plasma Prodrug (%) ([5]; 30 min): 69.8%
- Rat Plasma Prodrug (%) ([5]; 60 min): 69.2%
- Rat Plasma Prodrug (%) ([5]; 120 min): 68.4%
- Rat Plasma Prodrug (%) ([5]; 240 min): 65.7%

SMILES: COc1ccc([C@@]23CCC(OP(=O)(O)OCOC(=O)C(C)C)=C[C@@H]2N(C)CC3)cc1OC [Compound 408, [[(3aS,7aS)-3a-(3,4-dimethoxyphenyl)-1-methyl-3,4,5,7a-tetrahydro-2H-indol-6-yl]oxy-hydroxy-phosphoryl]oxymethyl 2-methylpropanoate]
- Human Plasma Prodrug (%) ([2]; 0 min): 100.0%
- Human Plasma Prodrug (%) ([2]; 10 min): 94.2%
- Human Plasma Prodrug (%) ([2]; 30 min): 82.6%
- Human Plasma Prodrug (%) ([2]; 60 min): 69.1%
- Human Plasma Prodrug (%) ([2]; 120 min): 45.4%
- Human Plasma Prodrug (%) ([2]; 240 min): 23.5%
- half-life at 1 μM [4]: 220 min
- hepatocyte CLint at 1 μM [4]: 6.4 µL/min/1e6 cells
- Rat Plasma Prodrug (%) ([5]; 0 min): 100.0%
- Rat Plasma Prodrug (%) ([5]; 10 min): 63.8%
- Rat Plasma Prodrug (%) ([5]; 30 min): 29.2%
- Rat Plasma Prodrug (%) ([5]; 60 min): 8.2%
- Rat Plasma Prodrug (%) ([5]; 120 min): 0.8%
- Rat Plasma Prodrug (%) ([5]; 240 min): 0.0%

SMILES: COc1ccc([C@@]23CCC(OP(=O)(O)OCOC(=O)C(C)(C)C)=C[C@@H]2N(C)CC3)cc1OC [Compound 409, [[(3aS,7aS)-3a-(3,4-dimethoxyphenyl)-1-methyl-3,4,5,7a-tetrahydro-2H-indol-6-yl]oxy-hydroxy-phosphoryl]oxymethyl 2,2-dimethylpropanoate]
- Human Plasma Prodrug (%) ([2]; 0 min): 100.0%
- Human Plasma Prodrug (%) ([2]; 10 min): >99%
- Human Plasma Prodrug (%) ([2]; 30 min): 95.2%
- Human Plasma Prodrug (%) ([2]; 60 min): 93.0%
- Human Plasma Prodrug (%) ([2]; 120 min): 87.3%
- Human Plasma Prodrug (%) ([2]; 240 min): 75.8%
- half-life at 1 μM [4]: 1540 min
- hepatocyte CLint at 1 μM [4]: 1.1 µL/min/1e6 cells
- Rat Plasma Prodrug (%) ([5]; 0 min): 100.0%
- Rat Plasma Prodrug (%) ([5]; 10 min): 89.9%
- Rat Plasma Prodrug (%) ([5]; 30 min): 81.2%
- Rat Plasma Prodrug (%) ([5]; 60 min): 71.0%
- Rat Plasma Prodrug (%) ([5]; 120 min): 44.5%
- Rat Plasma Prodrug (%) ([5]; 240 min): 22.7%

SMILES: COc1ccc([C@@]23CCC(OP4(=O)OCCCO4)=C[C@@H]2N(C)CC3)cc1OC [Compound 422, 2-(((3aS,7aS)-3a-(3,4-dimethoxyphenyl)-1-methyl-2,3,3a, 4,5,7a-hexahydro-1H-indol-6-yl)oxy)-1,3,2-dioxaphosphinane 2-oxide]
- Human Plasma Prodrug (%) ([2]; 0 min): 100.0%
- Human Plasma Prodrug (%) ([2]; 10 min): 89.4%
- Human Plasma Prodrug (%) ([2]; 30 min): 73.1%
- Human Plasma Prodrug (%) ([2]; 60 min): 62.4%
- Human Plasma Prodrug (%) ([2]; 120 min): 39.2%
- Human Plasma Prodrug (%) ([2]; 240 min): 19.6%
- half-life at 1 μM [4]: 366 min
- hepatocyte CLint at 1 μM [4]: 3.9 µL/min/1e6 cells
- Rat Plasma Prodrug (%) ([5]; 0 min): 100.0%
- Rat Plasma Prodrug (%) ([5]; 10 min): >99%
- Rat Plasma Prodrug (%) ([5]; 30 min): >99%
- Rat Plasma Prodrug (%) ([5]; 60 min): >99%
- Rat Plasma Prodrug (%) ([5]; 120 min): 91.0%
- Rat Plasma Prodrug (%) ([5]; 240 min): 76.8%

SMILES: COc1ccc([C@@]23CCC(OP4(=O)OC(C)CC(C)O4)=C[C@@H]2N(C)CC3)cc1OC (stereo partly drawn) [Compound 423, 2-(((3aS,7aS)-3a-(3,4-dimethoxyphenyl)-1-methyl-2,3,3a, 4,5,7a-hexahydro-1H-indol-6-yl)oxy)-4,6-dimethyl-1,3,2-dioxaphosphinane 2-oxide]
- Human Plasma Prodrug (%) ([2]; 0 min): 100.00%
- Human Plasma Prodrug (%) ([2]; 10 min): >99%
- Human Plasma Prodrug (%) ([2]; 30 min): >99%
- Human Plasma Prodrug (%) ([2]; 60 min): 98.77%
- Human Plasma Prodrug (%) ([2]; 120 min): 97.80%
- Human Plasma Prodrug (%) ([2]; 240 min): 89.67%
- half-life at 1 μM [4]: 57 min
- hepatocyte CLint at 1 μM [4]: 24.4 µL/min/1e6 cells
- Rat Plasma Prodrug (%) ([5]; 0 min): 100.00%
- Rat Plasma Prodrug (%) ([5]; 10 min): >99%
- Rat Plasma Prodrug (%) ([5]; 30 min): >99%
- Rat Plasma Prodrug (%) ([5]; 60 min): 91.05%
- Rat Plasma Prodrug (%) ([5]; 120 min): 83.29%
- Rat Plasma Prodrug (%) ([5]; 240 min): 67.32%
